From ChEMBL document CHEMBL4837239, “Identification of Thieno[3,2-d]pyrimidine Derivatives as Dual Inhibitors of Focal Adhesion Kinase and FMS-like Tyrosine Kinase 3” (J Med Chem, 2021)
Activity calls are given as the source filed them. The rule behind the calls is not given here.

Assays:
Focal adhesion kinase 1 = Focal adhesion kinase 1 (Homo sapiens, UniProt Q05397); test: Inhibition of recombinant FAK (unknown origin) by radiometric kinase assay
MDA-MB-231 [1] = test: Antiproliferative activity against human MDA-MB-231 cells assessed as growth inhibition measured after 72 hrs by CellTiter-Glo assay; type: functional
HCT-116 [2] = test: Antiproliferative activity against human HCT-116 cells assessed as growth inhibition measured after 72 hrs by CellTiter-Glo assay; type: functional
A375P = test: (§1) Antiproliferative activity against human A375P cells assessed as growth inhibition measured after 72 hrs by CellTiter-Glo assay; type: functional
MDA-MB-231 [3] = test: Induction of apoptosis in human MDA-MB-231 cells assessed as cleaved PARP at 0.1 to 10 uM incubated for 24 hrs by Western blot analysis; type: functional, cell-based; details: dose 0.1-10 µM
HCT-116 [4] = test: Induction of apoptosis in human HCT-116 cells assessed as cleaved PARP at 0.1 to 10 uM incubated for 24 hrs by Western blot analysis; type: functional, cell-based; details: dose 0.1-10 µM
MDA-MB-231 [5] = test: Growth inhibition of anchorage-Independent human MDA-MB-231 cells assessed as decrease in number of colonies incubated for 72 hrs by MTT assay; type: functional, cell-based; details: dose 1-10 µM
MDA-MB-231 [6] = test: In vivo antitumor activity against human MDA-MB-231 cells xenografted in Balb/c mouse assessed as reduction in tumor mass at 40 to 70 mg/kg, po once daily measured for 16 days; type: functional, organism-based; details: dose 40-70 mg/kg, time 16.0 day
CYP2D6 = CYP2D6 (Homo sapiens, UniProt P10635); test: Inhibition of CYP2D6 (unknown origin) at 10 uM relative to control; type: ADME
CYP2D6, sequence (P10635 whole entry): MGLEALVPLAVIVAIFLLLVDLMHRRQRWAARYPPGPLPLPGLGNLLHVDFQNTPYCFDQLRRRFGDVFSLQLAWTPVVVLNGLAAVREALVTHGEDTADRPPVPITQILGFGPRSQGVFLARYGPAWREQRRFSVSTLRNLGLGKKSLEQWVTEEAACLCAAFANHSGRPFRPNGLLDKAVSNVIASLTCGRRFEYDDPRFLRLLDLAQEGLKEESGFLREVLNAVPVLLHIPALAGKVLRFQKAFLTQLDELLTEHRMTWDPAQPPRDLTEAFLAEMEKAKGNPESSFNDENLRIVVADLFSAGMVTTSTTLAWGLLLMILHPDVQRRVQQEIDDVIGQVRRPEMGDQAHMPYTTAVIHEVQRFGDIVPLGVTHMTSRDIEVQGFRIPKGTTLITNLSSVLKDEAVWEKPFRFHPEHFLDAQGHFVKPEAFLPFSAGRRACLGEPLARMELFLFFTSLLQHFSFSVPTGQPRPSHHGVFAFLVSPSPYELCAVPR

[7] = Toxicity in Balb/c mouse xenografted with human MDA-MB-231 cells assessed as change in body weight at 40 to 70 mg/kg, po once daily measured for 16 days; type: organism-based; details: in vivo, 384 h, dose 40-70 mg/kg, time 16 day
[8] = biological target: T1, Mitogen-activated protein kinase; ERK1/ERK2 (Homo sapiens) (UniProt P27361+P28482); test: Inhibition of ERK1/2 autophosphorylation in human MDA-MB-231 cells at 0.5 to 5 uM incubated for 24 hrs by Western blot analysis; type: cell-based; details: dose 0.5-5 µM
T1 sequence (P27361 whole entry, looked up): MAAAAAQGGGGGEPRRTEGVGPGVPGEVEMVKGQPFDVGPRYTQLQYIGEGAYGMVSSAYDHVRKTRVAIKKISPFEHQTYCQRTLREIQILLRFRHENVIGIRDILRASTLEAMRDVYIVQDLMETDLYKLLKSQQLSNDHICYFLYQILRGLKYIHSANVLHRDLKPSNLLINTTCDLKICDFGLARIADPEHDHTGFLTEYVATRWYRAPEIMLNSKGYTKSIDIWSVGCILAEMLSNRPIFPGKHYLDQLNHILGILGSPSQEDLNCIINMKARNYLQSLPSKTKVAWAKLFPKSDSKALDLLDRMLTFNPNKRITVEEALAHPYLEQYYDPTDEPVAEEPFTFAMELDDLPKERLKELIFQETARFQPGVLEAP
T1 sequence (P28482 whole entry, looked up): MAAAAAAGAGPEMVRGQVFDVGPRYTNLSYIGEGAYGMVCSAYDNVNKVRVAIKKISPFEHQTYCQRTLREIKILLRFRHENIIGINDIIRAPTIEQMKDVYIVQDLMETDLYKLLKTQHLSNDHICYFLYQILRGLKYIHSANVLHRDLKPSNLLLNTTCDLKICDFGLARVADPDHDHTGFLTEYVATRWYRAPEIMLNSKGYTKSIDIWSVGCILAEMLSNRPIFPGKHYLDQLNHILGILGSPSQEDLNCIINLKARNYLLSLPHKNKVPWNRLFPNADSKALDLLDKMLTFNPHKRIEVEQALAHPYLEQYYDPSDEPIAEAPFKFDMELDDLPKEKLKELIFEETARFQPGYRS

CYP2C9 = CYP2C9 (Homo sapiens, UniProt P11712); test: Inhibition of CYP2C9 (unknown origin) at 10 uM relative to control; type: ADME
CYP2C9, sequence (P11712 whole entry): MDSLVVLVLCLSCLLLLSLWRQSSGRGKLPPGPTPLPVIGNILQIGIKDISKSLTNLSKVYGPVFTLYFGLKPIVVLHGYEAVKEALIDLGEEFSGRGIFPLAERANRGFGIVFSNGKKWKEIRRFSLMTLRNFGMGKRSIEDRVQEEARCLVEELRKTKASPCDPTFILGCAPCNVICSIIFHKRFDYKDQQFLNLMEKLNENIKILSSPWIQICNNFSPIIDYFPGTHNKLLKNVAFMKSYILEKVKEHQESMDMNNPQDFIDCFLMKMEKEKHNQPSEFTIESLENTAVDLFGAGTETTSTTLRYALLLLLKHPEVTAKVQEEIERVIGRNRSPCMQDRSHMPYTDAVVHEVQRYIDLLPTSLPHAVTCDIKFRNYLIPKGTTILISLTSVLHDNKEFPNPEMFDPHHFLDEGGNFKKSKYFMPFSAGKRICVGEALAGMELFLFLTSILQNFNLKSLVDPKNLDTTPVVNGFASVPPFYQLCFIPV

MDA-MB-231 [9] = test: Antimetastatic activity against human MDA-MB-231 cells expressing firefly luciferase xenografted NSG orthotopic mouse model assessed as reduction in luminescence intensity at chest region at 70 mg/kg, po once daily measured for 2 weeks; type: functional, organism-based
MDA-MB-231 [10] = test: Induction of apoptosis in human MDA-MB-231 cells assessed apoptotic cell death at 10 uM incubated for 24 hrs by Annexin-V/PI analysis; type: functional, cell-based
CYP1A2 = biological target: T2, CYP1A2 (Homo sapiens, UniProt P05177); test: Inhibition of CYP1A2 (unknown origin) at 10 uM relative to control; type: ADME
T2 sequence (P05177 whole entry): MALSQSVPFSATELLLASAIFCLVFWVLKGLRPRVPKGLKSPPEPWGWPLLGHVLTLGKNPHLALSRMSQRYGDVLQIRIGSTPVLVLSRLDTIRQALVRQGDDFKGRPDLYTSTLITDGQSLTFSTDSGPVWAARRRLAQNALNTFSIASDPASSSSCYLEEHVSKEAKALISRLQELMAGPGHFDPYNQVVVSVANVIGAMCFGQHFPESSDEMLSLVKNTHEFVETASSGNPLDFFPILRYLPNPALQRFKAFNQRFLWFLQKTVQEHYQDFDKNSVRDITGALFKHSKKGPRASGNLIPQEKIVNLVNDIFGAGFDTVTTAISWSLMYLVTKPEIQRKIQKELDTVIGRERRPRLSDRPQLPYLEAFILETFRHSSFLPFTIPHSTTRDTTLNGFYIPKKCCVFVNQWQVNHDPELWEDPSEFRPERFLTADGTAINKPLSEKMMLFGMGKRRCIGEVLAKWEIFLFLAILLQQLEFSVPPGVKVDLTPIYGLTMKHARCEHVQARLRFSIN

MDA-MB-231 [11] = test: Antitumor activity against human MDA-MB-231 cells xenografted in Balb/c mouse assessed as decrease in ki67 at 40 to 70 mg/kg, po once daily measured for 16 days by Immunohistochemical analysis; type: functional, organism-based; details: dose 40-70 mg/kg, time 16.0 day
[12] = biological target: T1, Mitogen-activated protein kinase; ERK1/ERK2 (Homo sapiens); test: Inhibition of ERK1/2 autophosphorylation in human HCT-116 cells at 0.5 to 5 uM incubated for 24 hrs by Western blot analysis; type: cell-based; details: dose 0.5-5 µM
[13] = as §1; type: functional
MDA-MB-231 [14] = test: In vivo antitumor activity against human MDA-MB-231 cells xenografted in Balb/c mouse assessed as tumor volume at 40 mg/kg, po once daily measured for 16 days (reference value: 600 mm^3); type: functional; details: time 16.0 day
CYP3A4 = CYP3A4 (Homo sapiens, UniProt P08684); test: Inhibition of CYP3A4 (unknown origin) at 10 uM relative to control; type: ADME
CYP3A4, sequence (P08684 whole entry): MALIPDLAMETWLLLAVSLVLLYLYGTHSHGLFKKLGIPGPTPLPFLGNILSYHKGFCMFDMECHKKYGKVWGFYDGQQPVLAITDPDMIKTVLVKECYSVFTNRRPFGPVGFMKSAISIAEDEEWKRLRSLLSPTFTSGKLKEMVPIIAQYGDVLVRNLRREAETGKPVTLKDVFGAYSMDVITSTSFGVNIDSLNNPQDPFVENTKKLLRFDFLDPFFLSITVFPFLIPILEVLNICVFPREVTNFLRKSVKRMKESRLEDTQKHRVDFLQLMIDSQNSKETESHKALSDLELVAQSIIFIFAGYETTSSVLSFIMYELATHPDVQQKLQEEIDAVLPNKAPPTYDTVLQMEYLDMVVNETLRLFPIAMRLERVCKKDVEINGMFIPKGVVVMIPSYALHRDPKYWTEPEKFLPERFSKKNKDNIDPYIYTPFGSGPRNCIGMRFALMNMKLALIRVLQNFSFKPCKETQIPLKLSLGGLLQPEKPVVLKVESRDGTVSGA

HCT-116 [15] = test: Induction of apoptosis in human HCT-116 cells assessed as cleaved caspase-3 at 0.1 to 10 uM incubated for 24 hrs by Western blot analysis; type: functional, cell-based; details: dose 0.1-10 µM
MDA-MB-231 [16] = test: Induction of apoptosis in human MDA-MB-231 cells assessed as cleaved caspase-3 at 0.1 to 10 uM incubated for 24 hrs by Western blot analysis; type: functional, cell-based; details: dose 0.1-10 µM
MDA-MB-231 [17] = test: In vivo antitumor activity against human MDA-MB-231 cells xenografted in Balb/c mouse assessed as reduction in tumor weight at 40 to 70 mg/kg, po once daily measured for 16 days; type: functional, organism-based; details: dose 40-70 mg/kg, time 16.0 day
MDA-MB-231 [18] = test: In vivo antitumor activity against human MDA-MB-231 cells xenografted in Balb/c mouse assessed as tumor volume at 70 mg/kg, po once daily measured for 16 days (reference value: 600 mm^3); type: functional; details: time 16.0 day
BaF3 [19] = test: Antiproliferative activity against mouse Ba/F3 cells harbouring FLT3 ITD F691L mutant assessed as growth inhibition measured after 72 hrs by CellTiter-Glo assay; type: functional
[20] = Metabolic stability in human liver microsomes assessed as compound remaining at 1 uM measured after 1 hr; type: ADME, Microsome; details: read-out: Stabilty
[21] = Inhibition of FLT3 D835Y (unknown origin); design: species or system Homo sapiens
[22] = Inhibition of FYK Y379 mutant phosphorylation in human MDA-MB-231 cells by in-cell western blot assay; type: cell-based
BaF3 [23] = test: Antiproliferative activity against mouse Ba/F3 cells harbouring FLT3 ITD F691I mutant assessed as growth inhibition measured after 72 hrs by CellTiter-Glo assay; type: functional
BaF3 [24] = test: Antiproliferative activity against mouse Ba/F3 cells harbouring FLT3 ITD D835Y mutant assessed as growth inhibition measured after 72 hrs by CellTiter-Glo assay; type: functional
BaF3 [25] = test: Antiproliferative activity against mouse Ba/F3 cells harbouring FLT3 ITD mutant assessed as growth inhibition measured after 72 hrs by CellTiter-Glo assay; type: functional
BaF3 [26] = test: Antiproliferative activity against mouse Ba/F3 cells harbouring FLT3 D835Y mutant assessed as growth inhibition measured after 72 hrs by CellTiter-Glo assay; type: functional
BaF3 [27] = test: Antiproliferative activity against mouse Ba/F3 cells assessed as growth inhibition measured after 72 hrs by CellTiter-Glo assay; type: functional
MV4-11 = test: In vivo antitumor activity against human MV4-11 cells xenografted in mouse assessed as tumor weight at 20 mg/kg, po relative to control; type: functional, organism-based

Focal adhesion kinase 1, sequence (Q05397 whole entry): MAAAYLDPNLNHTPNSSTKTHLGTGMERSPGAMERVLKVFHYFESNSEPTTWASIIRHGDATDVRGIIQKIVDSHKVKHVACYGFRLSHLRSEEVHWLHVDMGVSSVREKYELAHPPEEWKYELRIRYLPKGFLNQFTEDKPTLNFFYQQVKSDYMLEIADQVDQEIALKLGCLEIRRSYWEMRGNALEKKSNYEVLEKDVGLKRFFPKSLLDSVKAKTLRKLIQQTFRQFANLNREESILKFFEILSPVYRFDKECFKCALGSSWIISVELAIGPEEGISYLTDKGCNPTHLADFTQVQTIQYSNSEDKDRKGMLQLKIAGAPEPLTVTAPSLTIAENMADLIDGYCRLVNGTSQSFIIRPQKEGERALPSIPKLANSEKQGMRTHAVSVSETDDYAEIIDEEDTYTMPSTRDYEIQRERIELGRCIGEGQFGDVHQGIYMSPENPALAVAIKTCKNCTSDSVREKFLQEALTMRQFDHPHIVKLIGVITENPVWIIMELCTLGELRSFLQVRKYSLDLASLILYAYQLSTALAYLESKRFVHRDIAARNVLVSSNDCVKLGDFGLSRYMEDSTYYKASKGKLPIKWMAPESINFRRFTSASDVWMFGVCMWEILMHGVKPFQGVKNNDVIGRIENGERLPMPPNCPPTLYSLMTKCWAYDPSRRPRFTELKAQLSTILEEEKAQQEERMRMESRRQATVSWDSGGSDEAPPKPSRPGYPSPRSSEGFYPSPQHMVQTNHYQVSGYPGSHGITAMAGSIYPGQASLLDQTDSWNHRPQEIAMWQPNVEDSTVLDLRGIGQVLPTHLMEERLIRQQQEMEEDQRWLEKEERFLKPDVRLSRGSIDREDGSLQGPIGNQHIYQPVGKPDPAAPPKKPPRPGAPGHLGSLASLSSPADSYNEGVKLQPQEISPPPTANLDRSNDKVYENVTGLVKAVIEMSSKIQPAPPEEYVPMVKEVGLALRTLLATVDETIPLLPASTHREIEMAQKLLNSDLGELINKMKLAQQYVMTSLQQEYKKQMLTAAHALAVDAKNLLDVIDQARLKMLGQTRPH

With `CCN1CCN(c2ccc(Nc3ncc4scc(-c5ccc6ccccc6c5)c4n3)cc2)CC1` the IC50 (Focal adhesion kinase 1) was 126 nM, the GI50 (MDA-MB-231 [1]; Homo sapiens, MDA-MB-231) was 1380 nM and the GI50 (HCT-116 [2]; Homo sapiens, HCT-116) was 2060 nM. For the same compound, the GI50 (A375P) was “inactive”.
In the case of `CS(=O)(=O)Nc1cccc(-c2csc3cnc(NCCO)nc23)c1`, the GI50 (MDA-MB-231 [1]; Homo sapiens, MDA-MB-231) is reported as 57200 nM, the GI50 (HCT-116 [2]; Homo sapiens, HCT-116) is reported as 55800 nM and the GI50 (A375P) is reported as “inactive”.
With `CN(c1ncccc1CNc1nc(Nc2ccc3c(c2)CC(=O)N3)ncc1C(F)(F)F)S(C)(=O)=O` [PF-00562271] the Activity (MDA-MB-231 [3]) was “Active”, the Activity (HCT-116 [4]) was “Active” and the “growth inhibition (GI)” value (MDA-MB-231 [5]) was “Active”. For the same compound, the Activity (MDA-MB-231 [6]) was “Active”, the inhibition at 10 µM (CYP2D6) was 90.5% and the Activity [7] was “Non-Toxic”. The inhibition [8] was “inactive”, the inhibition at 10 µM (CYP2C9) was 42.7% and the Activity (MDA-MB-231 [9]) was “Active”. For the same compound, the Activity (MDA-MB-231 [10]) was “Active”, the GI50 (MDA-MB-231 [1]; Homo sapiens, MDA-MB-231) was 1950 nM and the inhibition at 10 µM (CYP1A2) was 91.2%. The Activity (MDA-MB-231 [11]) was “Active”, the GI50 (HCT-116 [2]; Homo sapiens, HCT-116) was 1140 nM and the inhibition [12] was “inactive”. For the same compound, the GI50 ([13]; Homo sapiens, A375P) was 10200 nM, the Activity (MDA-MB-231 [14]) was “Active” and the inhibition at 10 µM (CYP3A4) was 47.2%. For the same compound, the Activity (HCT-116 [15]) was “Active”, the Activity (MDA-MB-231 [16]) was “Active” and the Activity (MDA-MB-231 [17]) was “Active”. The Activity (MDA-MB-231 [18]) was “Active”.
Work on `COc1cc(Nc2ncc3scc(-c4cccc(NS(C)(=O)=O)c4)c3n2)cc(OC)c1OC` yielded a GI50 (BaF3 [19]) of 25.3 nM, an IC50 (Focal adhesion kinase 1) of 7 nM and a remaining at 1 h, 1 µM [20] of 39.7%. The IC50 [21] was < 0.5 nM, the GI50 (MDA-MB-231 [1]) was 410 nM and the GI50 (HCT-116 [2]) was 430 nM. It also gave an IC50 [22] of 260 nM, a GI50 [13] of 200 nM and a GI50 (BaF3 [23]) of 325 nM. It also gave a GI50 (BaF3 [24]) of 1.3 nM, a GI50 (BaF3 [25]) of 3.1 nM and a GI50 (BaF3 [26]) of 1.3 nM. For the same compound, the GI50 (BaF3 [27]) was 586 nM.
Work on `CCOC(=O)c1ccccc1-c1csc2cnc(Nc3ccc(N4CCN(CC)CC4)cc3)nc12` yielded an IC50 (Focal adhesion kinase 1) of 1650 nM, a GI50 (MDA-MB-231 [1]; Homo sapiens, MDA-MB-231) of 46200 nM and a GI50 (HCT-116 [2]; Homo sapiens, HCT-116) of 31200 nM. The GI50 (A375P) was “inactive”.
In the case of `CNC(=O)c1cc(Oc2ccc(NC(=O)Nc3ccc(Cl)c(C(F)(F)F)c3)cc2)ccn1` [SORAFENIB], the GI50 (BaF3 [19]; Mus musculus, BaF3) is reported as 1540 nM, the Activity (MV4-11) is reported as “Active” and the GI50 (BaF3 [23]; Mus musculus, BaF3) is reported as 2640 nM. It also gave a GI50 (BaF3 [24]; Mus musculus, BaF3) of 206 nM, a GI50 (BaF3 [25]; Mus musculus, BaF3) of 2.8 nM and a GI50 (BaF3 [26]; Mus musculus, BaF3) of 56.5 nM. The GI50 (BaF3 [27]; Mus musculus, BaF3) was 5420 nM.
Work on `CS(=O)(=O)Nc1cccc(-c2csc3cnc(Nc4ccc(N5CCOCC5)cc4)nc23)c1` yielded a GI50 (BaF3 [19]) of 104 nM, an IC50 (Focal adhesion kinase 1) of 8 nM and a remaining at 1 h, 1 µM [20] of 79.5%. For the same compound, the IC50 [21] was < 0.5 nM, the GI50 (MDA-MB-231 [1]) was 400 nM and the GI50 (HCT-116 [2]) was 410 nM. It also gave an IC50 [22] of 260 nM, a GI50 [13] of 1570 nM and a GI50 (BaF3 [23]) of 365 nM. The GI50 (BaF3 [24]) was 10.3 nM, the GI50 (BaF3 [25]) was 9.5 nM and the GI50 (BaF3 [26]) was 1.7 nM. For the same compound, the GI50 (BaF3 [27]) was 510 nM.
